Read-outs that look alike come from different tables or passages of the source.
System: adenohypophysis of female Sprague-Dawley rats (cell cultures), LH-hormone released from the cells
Details: for ED50 (LH release): rat pituitary cell culture, 4 hours incubation with 10^-7 to 10^-12 molar peptide; for relative activity (GnRH = 1.00): relative LH-releasing activity versus GnRH, from ED50 values
Method: The LH-releasing activity of the new peptides according to the invention was tested by the following method, in which for comparison the known gonadoliberin was employed under the same conditions.
The adenohypophysis of female Sprague-Dawley rats weighing 150-200 g each was eliminated and pretrypsinized. Approximately 40-50 pituitaries were placed into separate flasks and allowed to stand in 25 ml of a 0.25% trypsin solution (Sigma, type 111) at 0° to 4° C. for 16 hours. The pituitaries were then stirred under a 5% CO2 atmosphere at 37° C. for 20-25 minutes while they were decomposed to their cells. To the cell suspension soya-bean trypsin inhibitor was added whereupon it was suspended and centrifuged in a Medium 199 solution (with Earle's salts, Flow Laboratories, UK) three times (800 x g, 10 minutes). The cell suspension was padded through a sterile metal filter and the number of cells in one ml was counted. After counting, 3 ml of the cell suspension was dispensed into culture flasks each containing 1.8×10^6 cells. The cells were cultured for 3 days at 37° C. under a 5% CO2 atmosphere. On the 3rd day the medium was replaced by a fresh one and incubation was continued for one more day. On the 4th day the medium was changed again and a medium containing a 10^-7 to 10^-12 molar solution of the peptides to be tested was added to the cell cultures. The cells were incubated with the peptide solutions for 4 hours, the culture solutions were eliminated and the amount of the LH-hormone released from the cells was determined by radioimunoassay.

Glp-His-Trp-Ser-Tyr-D-Cpa-Leu-Arg-Pro-Gly-NH2 [D-Cpa^6 -GnRH]
ED50 (LH release): 0.02063 nM
relative activity (GnRH = 1.00): 16.6

Gonadoliberin [GnRH, reference compound]
ED50 (LH release) (unit as printed for GnRH): 0.343 nM
relative activity (GnRH = 1.00): 1.00

Glp-His-Trp-Ser-Tyr-D-Thx-Leu-Arg-Pro-Gly-NH2 [D-Thx^6 -GnRH]
ED50 (LH release): 0.02892 nM
relative activity (GnRH = 1.00): 11.9

Source: patent US4552864A, “Gonadoliberin derivatives process for the preparation and pharmaceutical compositions thereof” (Reanal Finomvegyszergyar, priority 1982, dated 1985)
